Legend:
[1] = target: T1, bacterial α-glucosidase CjAgd31B (Cellvibrio japonicus, UniProt B3PEE6); experiment: thermal shift assay of CjAgd31B with Sypro Orange dye; format: binding; conditions: 2 μM CjAgd31B, 0-1000 μM inhibitor, pH 6.5
T1 construct: made in house
T1 sequence (B3PEE6 25-816): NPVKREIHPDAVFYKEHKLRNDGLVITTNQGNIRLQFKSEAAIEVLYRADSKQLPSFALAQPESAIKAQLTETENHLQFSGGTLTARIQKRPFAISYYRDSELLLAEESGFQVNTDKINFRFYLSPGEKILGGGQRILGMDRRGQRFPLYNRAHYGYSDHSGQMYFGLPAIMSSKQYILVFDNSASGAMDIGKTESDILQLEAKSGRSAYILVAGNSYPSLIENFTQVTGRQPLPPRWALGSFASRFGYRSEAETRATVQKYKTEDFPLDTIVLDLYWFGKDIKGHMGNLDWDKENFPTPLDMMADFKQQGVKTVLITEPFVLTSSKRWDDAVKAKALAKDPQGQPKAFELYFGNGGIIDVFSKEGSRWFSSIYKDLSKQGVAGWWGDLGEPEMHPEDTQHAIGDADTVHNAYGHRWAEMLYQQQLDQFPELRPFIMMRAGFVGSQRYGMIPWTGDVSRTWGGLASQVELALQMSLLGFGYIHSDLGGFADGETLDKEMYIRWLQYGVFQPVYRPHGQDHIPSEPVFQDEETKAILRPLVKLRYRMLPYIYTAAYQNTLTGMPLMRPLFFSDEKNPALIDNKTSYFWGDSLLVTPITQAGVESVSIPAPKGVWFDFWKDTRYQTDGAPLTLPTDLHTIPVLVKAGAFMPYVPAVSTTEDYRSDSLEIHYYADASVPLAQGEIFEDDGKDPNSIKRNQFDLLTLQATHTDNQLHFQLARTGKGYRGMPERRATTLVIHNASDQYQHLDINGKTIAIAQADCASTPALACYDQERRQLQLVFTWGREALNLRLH

sucrase-isomaltase (SI) = target: T2, sucrase-isomaltase (SI) (Mus musculus, UniProt B5THE3); experiment: competitive ABPP in mouse intestine homogenates, SI; format: biochemical; conditions: mouse duodenum extracts; 0-100 μM; 30 min 37 °C
T2 construct: cABPP in mouse intestine homogenates; from tissue; host or cells: duodenum of wild type mice
Protocol: Inhibition of gastrointestinal α-glucosidases with antidiabetic drugs has been related to undesired effects, including flatulence, diarrhea, and abdominal pain. Cyclosulfamidate 4 inhibits SI and MGAM but does so about a 100-fold less potently than it inhibits rhGAA or GANAB, and we conclude that it has a more beneficial therapeutic window in this regard compared to NB-DNJ 2.
Figure 2 Competitive ABPP (cABPP) in mouse intestine homogenates. […]
After preincubation, 25 μL of E+I mixture was added to a 96 wells plate and 100 μL substrate solution in the appropriate buffer was subsequently added. GAA activity was measured using final concentrations of 47 nM enzyme (Myozyme) and 3.0 mM 4-MU-α-D-glucopyranoside, for 30 minutes at 37 ℃. GANAB activity was measured using wt fibroblasts and 2.4 mM 4-MU-α-D-glucopyranoside, for 2 h at 37 ℃. GBA1 activity was measured using final concentrations of 0.7 nM enzyme (Cerezyme) and 3.0 mM 4-methylumbeliferone(4-MU)-β-D-glucopyranoside, for 30 min at 37 ℃. GBA2 residual activity was measured using cellular homogenates of HEK293T over-expressing GBA2 pre-incubated for 30 min with a GBA1 inhibitor (1 µM 37 (ME656), see Figure S1 for chemical structure), and further incubation with 3.0 mM 4-methylumbeliferone(4MU)-β-D-glucopyranoside […]

[2] = target: α-glucosidase GAA (Myozyme) (Homo sapiens, UniProt P10253); experiment: kinetic studies in rhGAA with increasing 4-MU-α-glucoside concentrations

T2 sequence (B5THE3 1-1818): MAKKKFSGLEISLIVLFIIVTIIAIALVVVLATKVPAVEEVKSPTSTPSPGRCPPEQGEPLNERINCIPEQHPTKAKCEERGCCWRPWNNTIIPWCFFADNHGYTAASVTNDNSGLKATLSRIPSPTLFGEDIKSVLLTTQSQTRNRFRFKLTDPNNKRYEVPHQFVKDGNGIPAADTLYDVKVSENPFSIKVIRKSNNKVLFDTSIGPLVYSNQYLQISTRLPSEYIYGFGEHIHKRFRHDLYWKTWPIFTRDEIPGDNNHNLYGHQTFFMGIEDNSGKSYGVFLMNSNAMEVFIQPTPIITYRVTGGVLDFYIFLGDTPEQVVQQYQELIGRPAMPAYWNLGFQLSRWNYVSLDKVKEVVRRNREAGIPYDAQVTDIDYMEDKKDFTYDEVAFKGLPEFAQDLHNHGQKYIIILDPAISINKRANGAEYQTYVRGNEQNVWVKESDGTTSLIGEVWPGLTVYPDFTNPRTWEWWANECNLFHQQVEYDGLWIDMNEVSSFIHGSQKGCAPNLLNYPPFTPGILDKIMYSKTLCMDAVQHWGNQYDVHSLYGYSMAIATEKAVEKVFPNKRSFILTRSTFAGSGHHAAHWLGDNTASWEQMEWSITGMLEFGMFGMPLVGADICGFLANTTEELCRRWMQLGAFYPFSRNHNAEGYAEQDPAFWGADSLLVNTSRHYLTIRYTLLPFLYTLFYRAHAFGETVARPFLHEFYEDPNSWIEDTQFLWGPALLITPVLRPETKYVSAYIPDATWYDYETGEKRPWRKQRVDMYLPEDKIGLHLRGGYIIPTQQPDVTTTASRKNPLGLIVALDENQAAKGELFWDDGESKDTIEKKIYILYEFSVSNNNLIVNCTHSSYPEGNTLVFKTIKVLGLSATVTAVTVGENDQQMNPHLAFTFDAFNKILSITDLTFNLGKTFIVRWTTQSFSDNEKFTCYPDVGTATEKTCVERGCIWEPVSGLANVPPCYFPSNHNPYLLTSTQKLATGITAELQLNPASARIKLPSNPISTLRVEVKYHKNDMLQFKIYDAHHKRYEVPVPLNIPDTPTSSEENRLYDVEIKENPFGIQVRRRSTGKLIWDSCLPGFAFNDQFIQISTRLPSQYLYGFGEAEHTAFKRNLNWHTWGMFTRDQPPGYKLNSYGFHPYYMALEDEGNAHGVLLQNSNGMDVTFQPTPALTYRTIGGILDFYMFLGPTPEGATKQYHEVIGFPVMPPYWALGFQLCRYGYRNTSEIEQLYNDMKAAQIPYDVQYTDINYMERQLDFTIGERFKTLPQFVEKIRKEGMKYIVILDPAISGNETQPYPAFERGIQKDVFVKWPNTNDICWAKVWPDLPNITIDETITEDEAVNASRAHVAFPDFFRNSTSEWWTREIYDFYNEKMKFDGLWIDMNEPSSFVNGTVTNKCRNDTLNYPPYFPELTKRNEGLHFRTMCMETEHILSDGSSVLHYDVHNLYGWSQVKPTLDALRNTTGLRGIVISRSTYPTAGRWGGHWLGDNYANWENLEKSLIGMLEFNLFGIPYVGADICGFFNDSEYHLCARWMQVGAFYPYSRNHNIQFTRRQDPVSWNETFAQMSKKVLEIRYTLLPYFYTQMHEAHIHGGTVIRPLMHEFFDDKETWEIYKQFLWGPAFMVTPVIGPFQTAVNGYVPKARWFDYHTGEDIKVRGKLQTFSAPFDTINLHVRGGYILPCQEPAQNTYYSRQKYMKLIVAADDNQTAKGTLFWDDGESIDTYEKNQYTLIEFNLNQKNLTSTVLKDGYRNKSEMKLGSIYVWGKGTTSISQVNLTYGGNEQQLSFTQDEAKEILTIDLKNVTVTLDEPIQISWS

With `O=S1(=O)N[C@@H]2[C@H](O)[C@@H](O)[C@H](O)[C@@H](CO)[C@@H]2O1` [compound 4, 1,6-epi-cyclophellitol cyclosulfamidate] the ΔTmmax [1] was 5.2 °C, the EC50 ([1]; read-out: EC50 of thermal stabilization) was 134 µM and the “inhibition of SI by cABPP, in words” value (sucrase-isomaltase (SI)) was “inhibit”. The Ki [2] was 3.4 µM and the “Ki potency relative to NB-DNJ 2 (more potent)” value [2] was “approximately 5 fold”.

— PMC9389588, “1,6-epi-Cyclophellitol Cyclosulfamidate Is a Bona Fide Lysosomal α-Glucosidase Stabilizer for the Treatment of Pompe Disease” (Journal of the American Chemical Society, 2022)
